Bounds are passed on as bounds.

One assay addresses T1, HDAC6 (Homo sapiens, UniProt Q9UBN7).
T1 sequence (Q9UBN7 1-1215): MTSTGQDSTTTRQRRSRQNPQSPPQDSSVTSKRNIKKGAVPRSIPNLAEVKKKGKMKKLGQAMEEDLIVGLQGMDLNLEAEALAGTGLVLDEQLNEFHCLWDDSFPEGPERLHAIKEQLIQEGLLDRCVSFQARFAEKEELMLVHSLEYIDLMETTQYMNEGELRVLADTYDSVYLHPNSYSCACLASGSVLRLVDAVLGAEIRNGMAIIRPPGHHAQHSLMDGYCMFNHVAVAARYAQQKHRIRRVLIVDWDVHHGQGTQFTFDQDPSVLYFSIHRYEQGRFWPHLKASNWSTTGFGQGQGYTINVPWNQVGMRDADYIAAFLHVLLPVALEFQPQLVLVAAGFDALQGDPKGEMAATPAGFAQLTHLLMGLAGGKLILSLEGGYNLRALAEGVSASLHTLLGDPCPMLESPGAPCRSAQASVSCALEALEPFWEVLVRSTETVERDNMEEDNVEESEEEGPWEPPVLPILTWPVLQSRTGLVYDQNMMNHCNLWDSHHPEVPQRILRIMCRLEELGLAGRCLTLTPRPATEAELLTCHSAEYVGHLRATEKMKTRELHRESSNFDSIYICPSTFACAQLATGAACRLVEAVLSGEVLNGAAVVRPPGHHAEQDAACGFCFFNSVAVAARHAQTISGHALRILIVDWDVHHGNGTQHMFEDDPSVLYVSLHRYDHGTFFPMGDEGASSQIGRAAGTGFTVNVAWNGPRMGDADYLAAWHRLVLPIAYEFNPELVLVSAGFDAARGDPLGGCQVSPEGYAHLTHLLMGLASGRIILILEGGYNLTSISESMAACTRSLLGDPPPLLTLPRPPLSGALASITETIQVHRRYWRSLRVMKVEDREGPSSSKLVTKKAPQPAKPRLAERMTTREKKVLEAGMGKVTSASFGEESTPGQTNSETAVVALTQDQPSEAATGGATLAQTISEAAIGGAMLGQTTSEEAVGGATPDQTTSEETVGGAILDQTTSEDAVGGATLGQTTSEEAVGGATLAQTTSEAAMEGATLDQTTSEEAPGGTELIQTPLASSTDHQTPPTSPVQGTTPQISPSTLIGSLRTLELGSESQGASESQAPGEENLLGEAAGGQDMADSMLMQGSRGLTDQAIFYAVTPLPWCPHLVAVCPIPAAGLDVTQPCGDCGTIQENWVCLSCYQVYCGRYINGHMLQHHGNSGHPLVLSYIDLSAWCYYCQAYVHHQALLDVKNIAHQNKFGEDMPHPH
Briefly: Fluorogenic HDAC inhibition assay, purified enzyme.

Another assay addresses HDAC3 (Homo sapiens, UniProt O15379). In words: Fluorogenic HDAC inhibition assay, purified enzyme.
Another assay concerns SCC4 cells. In words: MTS cell proliferation assay. The format is cell-based, human. The conditions noted are these: vitamin D resistant SCC4 cells, Figures 7c, 8 and 9. An excerpt:
Dose-dependent effects of compounds on cell cycle progression was monitored using a CellTiter 96 Aqueous Non-Radioactive Cell Proliferation Assay Kit (Promega). The assay composed of solutions of a novel tetrazolium compound (MTS) and an electron coupling reagent (phenazine methosulfate; PMS). MTS is reduced by metabolically active cells into a soluble formazan product that absorbs at 490nm. The quantity of formazan product absorbing at 490nm is directly proportional to the number of living cells.
On the technique in general: Tetrazolium dyes change colour on reduction, which living cells bring about.

The target of a further assay is T2, VDR (Homo sapiens, UniProt P11473).
T2 construct: endogenous in cells; host or cells: SCC25 human head and neck squamous carcinoma cells
T2 sequence (P11473 1-427): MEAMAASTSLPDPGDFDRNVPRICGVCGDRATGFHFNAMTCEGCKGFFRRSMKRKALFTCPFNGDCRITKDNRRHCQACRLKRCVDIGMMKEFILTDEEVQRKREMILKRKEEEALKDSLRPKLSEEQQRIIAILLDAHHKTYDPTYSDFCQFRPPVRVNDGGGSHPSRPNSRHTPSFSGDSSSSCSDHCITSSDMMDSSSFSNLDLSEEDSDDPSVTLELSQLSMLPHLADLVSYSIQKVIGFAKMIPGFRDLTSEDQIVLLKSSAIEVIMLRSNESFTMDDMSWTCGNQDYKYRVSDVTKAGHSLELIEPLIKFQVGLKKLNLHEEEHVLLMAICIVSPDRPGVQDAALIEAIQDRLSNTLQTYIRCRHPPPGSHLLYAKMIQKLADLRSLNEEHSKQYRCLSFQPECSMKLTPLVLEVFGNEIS
Briefly: VDR agonism by induction of CYP24 gene expression (RT/PCR). The conditions noted are these: SCC25 cells; for VDR agonism by induction of CYP24 gene expression: screen at 10 µM, Fig. 1a. The format is cell-based. As to the method: Cell culture. Human head and neck squamous carcinoma cell lines SCC4 and SCC45 and mouse HNSCC line AT84 were purchased from American Type Culture Collection (Manassas, VA) and cultured under recommended conditions. Cells were split at 60-70% confluence, as follows: cells were washed with filtered PBS, split with a 5-10 min incubation with 1 ml Trypsin-EDTA (Invitrogen, Carlsbad, CA) in PBS, collected with medium. Following centrifugation, the supernatant was removed. Cell pellets were resuspended with DMEM-F12, and distributed on fresh media-containing dishes. For treatments, AT84 cells were split and 24h later medium was changed to DMEM + 10% charcoal-stripped FBS.
RNA isolation and RT/PCR analysis. […]. Proc. Nat. Acad. Sci. U.S.A. 105, 8250-55. and Lamblin, M.et al Bioorganic & Medicinal Chemistry (2010) 18:4119-4137. After treatment, cells were washed with PBS, homogenized with 1ml TRIzol Reagent (Invitrogen, Carlsbad, CA), kept at room temperature for 2-5 min, collected and kept at -80 °C for at least 1h. After, thawing 0.2 ml chloroform was added. After vigorous mixing and storing for 10min, mixtures were centrifuged (10,000rpm, 15 min, 4 °C) and the upper transparent layer was transferred to a new tube. 0.5 ml isopropanol was added and the new solution was mixed. After centrifuging at 4 °C, the supernatant was discarded and 1ml of 75% ethanol was added. After centrifuging and discarding the supernatant, the pellet was air-dried for 5-10 min, and then dissolved in ddH2O. RNA concentrations were measured using a spectrophotometer, and 1-3µg of RNA were loaded for reverse transcriptase reactions (total volume: 20 µl). 80µl of ddH2O was added to the RT-product, and 1.5µl of that was used as template for the PCR reaction. Reverse transcriptase (Super Script II) was purchased from Invitrogen (Carlsbad, CA). DNA polymerase and dNTP's were ordered from Fermentas (Glen Burnie, MD).
Test compounds (10 µM) were first screened for VDR agonism by analysis of induction of CYP24 gene expression in 1,25D-sensitive human SCC25 cells. […]. Consistent with binding to the VDR, induction of CYP24 by compound JF-B01, compound JF-B53 or compound 16 (JF-B54) was blocked (Fig. 1c). […]

HDAC3, sequence (O15379 whole entry, species assumed): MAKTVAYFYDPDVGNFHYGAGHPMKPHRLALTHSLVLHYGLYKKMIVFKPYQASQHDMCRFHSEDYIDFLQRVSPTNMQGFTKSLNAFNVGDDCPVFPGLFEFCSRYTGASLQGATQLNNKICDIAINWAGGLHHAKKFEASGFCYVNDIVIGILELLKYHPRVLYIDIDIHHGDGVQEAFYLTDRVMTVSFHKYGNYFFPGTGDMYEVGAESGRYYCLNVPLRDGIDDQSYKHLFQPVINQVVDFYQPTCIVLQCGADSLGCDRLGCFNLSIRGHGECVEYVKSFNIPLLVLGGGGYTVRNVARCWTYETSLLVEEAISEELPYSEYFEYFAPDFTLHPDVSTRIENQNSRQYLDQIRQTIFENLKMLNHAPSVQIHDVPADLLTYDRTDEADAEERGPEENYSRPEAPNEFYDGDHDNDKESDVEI
HDAC3, sequence (Q9Y618 395-489 partner limits assumed, species assumed): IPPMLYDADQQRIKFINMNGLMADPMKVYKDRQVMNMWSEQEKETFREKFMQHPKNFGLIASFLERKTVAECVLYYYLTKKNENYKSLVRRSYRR
Procedure for HDAC3: (§1) Fluorogenic HDAC inhibition assay. Boc-Lys(Ac)-7-amino-4-methylcoumarin (Boc-Lys(Ac)-AMC) was used as substrate for the HDAC assays. […] Trypsin was used to stop the reaction, releasing free AMC. The trypsin solution was prepared as follow: trypsin was dissolved in HDAC buffer to give a concentration of 10 mg/mL. Release of AMC was monitored by measuring the fluorescence at 460 nm (lex = 390 nm) with a microplate reader (SpectraMax Gemini) at 37 °C. The AMC signals were recorded against a blank with buffer, substrate and trypsin but without the enzyme. All experiments were carried out at least in triplicate.
(§2) For standard HDAC assays, 50 µL of HDAC buffer was mixed with 10 µL of diluted enzyme solution in HDAC buffer at room temperature. The HDAC reaction was started by adding 40 µL of substrate solution in HDAC buffer followed by 30 min of incubation with stirring at 37 °C. The reaction was stopped by adding 100 µL of trypsin solution. After a 10 min incubation with stirring at 37 °C, the release of AMC was monitored by measuring the fluorescence. For HDAC inhibition assays, inhibitor diluted in 50 µL of HDAC buffer was mixed with 10 µL of diluted enzyme solution in HDAC buffer at room temperature. The HDAC reaction was started by adding 40 µL of substrate solution in HDAC buffer followed by 30 min of incubation with stirring at 37 °C. The reaction was stopped by adding 100 µL of trypsin solution. After a 10 min incubation with stirring at 37 °C, the release of AMC was monitored by measuring the fluorescence.
Procedure for HDAC6: as §1, §2

As for `CCC(CC)(c1ccc(OCCCCC(=O)NO)cc1)c1ccc(OCCC(C)(C)C)c(C)c1` [DK-405, 5-(4-(3-(4-(3,3-dimethylbutoxy)-3-methylphenyl)pentan-3-yl)phenoxy)-N-hydroxypentanamide], on HDAC6, inhibition was half-maximal at 1.97 µM (IC50). This counts as single-digit micromolar.
For the compound `CCC(CC)(c1ccc(OCCCC(=O)NO)c(C)c1)c1ccc(OC[C@H](O)C(C)(C)C)c(C)c1` [JFD-15], the IC50 (usually the concentration that inhibits the measured activity by half) against HDAC6 was 47.1 µM; against HDAC3, 9.83 µM. Also, the antiproliferative potency result in the assay on SCC4 cells is given as “low micromolar potency”.
With `CCC(CC)(c1ccc(OCC(O)C(C)(C)C)c(C)c1)c1cc(C)c(CCC(=O)NO)s1` (stereo not shown) [DK-178, N-hydroxy-3-(5-(3-(4-(2-hydroxy-3,3-dimethylbutoxy)-3-methylphenyl)pentan-3-yl)-3-methylthiophen-2-yl)propanamide], the IC50 came to 24.9 µM against HDAC6 and 47.3 µM at HDAC3. For the same compound, the antiproliferative potency result in the assay with SCC4 cells is recorded as “low micromolar potency”.
At HDAC6, `CCC(CC)(c1ccc(OCCCCC(=O)NO)cc1)c1ccc(OCC(O)C(C)(C)C)c(C)c1` (stereo not shown) [DK-381, N-hydroxy-5-(4-(3-(4-(2-hydroxy-3,3-dimethylbutoxy)-3-methylphenyl)pentan-3-yl)phenoxy)pentanamide] registered an IC50 of 3.13 µM.
The compound `CCC(CC)(c1ccc(OCC(O)C(C)(C)C)c(C)c1)c1ccc(C(=O)NCCCCCC(=O)NO)c(C)c1` (stereo not shown) [DK-361, 4-(3-(4-(2-hydroxy-3,3-dimethylbutoxy)-3-methylphenyl)pentan-3-yl)-N-(6-(hydroxyamino)-6-oxohexyl)-2-methylbenzamide] had an IC50 against HDAC6 of 3.4 µM.
On HDAC6, `CCC(CC)(c1ccc(C(=O)NCCCCCC(=O)NO)cc1)c1ccc(OCC(O)C(C)(C)C)c(C)c1` (stereo not shown) [DK-406, 4-(3-(4-(2-hydroxy-3,3-dimethylbutoxy)-3-methylphenyl)pentan-3-yl)-N-(6-(hydroxyamino)-6-oxohexyl)benzamide] showed an IC50 of 0.557 µM.
In the case of `CCC(CC)(c1ccc(OCC(=O)NO)c(C)c1)c1ccc(OCC(=O)C(C)(C)C)c(C)c1` [JF-B59, 2-(4-(3-(4-(3,3-dimethyl-2-oxobutoxy)-3-methylphenyl)pentan-3-yl)-2-methylphenoxy)-N-hydroxyacetamide], the “VDR agonist potency, fold lower compared to JF-B01” value at VDR (Fig. 1b) was more than 10 fold.
With `CCC(CC)(c1ccc(OCCCCC(=O)NO)c(C)c1)c1ccc(OCC(O)C(C)(C)C)c(C)c1` (stereo not shown) [DK-320, N-hydroxy-5-(4-(3-(4-(2-hydroxy-3,3-dimethylbutoxy)-3-methylphenyl)pentan-3-yl)-2-methylphenoxy)pentanamide], the midpoint of inhibition against HDAC6, the IC50, lay at 5.03 µM.
On HDAC6, `CCC(CC)(c1ccc(OCCCCCCC(=O)NO)c(C)c1)c1ccc(OCC(O)C(C)(C)C)c(C)c1` (stereo not shown) [DK-347, N-hydroxy-7-(4-(3-(4-(2-hydroxy-3,3-dimethylbutoxy)-3-methylphenyl)pentan-3-yl)-2-methylphenoxy)heptanamide] showed an IC50 of 3.94 µM.
On to `CCC(CC)(c1ccc(CCC(=O)NO)c(C)c1)c1ccc(OC[C@H](O)C(C)(C)C)c(C)c1` [JFD-50], for which the IC50 on HDAC6 is 36.1 µM; at HDAC3, 45.1 µM. In addition, the antiproliferative potency entry in the assay with SCC4 cells is listed as “low micromolar potency”.
The compound `CCC(CC)(c1ccc(OCC(O)CCC(=O)NO)c(C)c1)c1ccc(OCC(O)C(C)(C)C)c(C)c1` (stereo not shown) [DK-305, N,4-dihydroxy-5-(4-(3-(4-(2-hydroxy-3,3-dimethylbutoxy)-3-methylphenyl)pentan-3-yl)-2-methylphenoxy)pentanamide] yielded an IC50 at HDAC6 of 29.2 µM.
For the compound `CCC(CC)(c1ccc(OCCO)c(C)c1)c1ccc(OCC(=O)NO)c(C)c1` [JF-B52, N-Hydroxy-2-(4-(3-(4-(2-hydroxvethoxy)-3-methylphenyl)pentan-3-yl)-2-methylphenoxy)acetamide], the “VDR agonism by induction of CYP24 gene expression” value at VDR is “completely inactive”.
Turning to `CCC(CC)(c1ccc(OCCCCCC(=O)NO)c(C)c1)c1ccc(OCC(O)C(C)(C)C)c(C)c1` (stereo not shown) [DK-319, N-hydroxy-6-(4-(3-(4-(2-hydroxy-3,3-dimethylbutoxy)-3-methylphenyl)pentan-3-yl)-2-methylphenoxy)hexanamide], inhibition against HDAC6 was half-maximal at 2.65 µM (IC50).
On HDAC6, `CCC(CC)(c1ccc(OCC(O)C(C)(C)C)c(C)c1)c1ccc(C(=O)NCCCCCCC(=O)NO)c(C)c1` (stereo not shown) [DK-362, 4-(3-(4-(2-hydroxy-3,3-dimethylbutoxy)-3-methylphenyl)pentan-3-yl)-N-(7-(hydroxyamino)-7-oxoheptyl)-2-methylbenzamide] gave an IC50 of 1.08 µM.
With `CCC(CC)(c1ccc(OCC(=O)NO)c(C)c1)c1ccc(OCC(O)CO)c(C)c1` (stereo not shown) [JF-B40], the “VDR agonism by induction of CYP24 gene expression” value on VDR was “completely inactive”.
Consider `CCC(CC)(c1ccc(OCC(O)C(C)(C)C)c(C)c1)c1cn(C)c2cc(CCC(=O)NO)ccc12` (stereo not shown) [DK-234, N-hydroxy-3-(3-(3-(4-(2-hydroxy-3.3-dimethylbutoxy)-3-methylphenyl)pentan-3-yl)-1-methyl-1H-indol-6-yl)propanamide], for which, in the assay on SCC4 cells, the antiproliferative potency entry is “low micromolar potency”.
`CCC(CC)(c1ccc(OCC(=O)NO)c(C)c1)c1cc(C)c(CCC(O)C(C)(C)C)s1` (stereo not shown) [DK-201, N-hydroxy-2-(4-(3-(5-(3-hydroxy-4,4-dimethylpentyl)-4-methylthiophen-2-yl)pentan-3-yl)-2-methylphenoxy)acetamide] came in with a concentration for half-maximal inhibition (IC50) at HDAC3 of 30.5 µM.
For the compound `CCC(CC)(c1ccc(OCCCCCC(=O)NO)cc1)c1ccc(OCC(O)C(C)(C)C)c(C)c1` (stereo not shown) [DK-367, N-hydroxy-6-(4-(3-(4-(2-hydroxy-3,3-dimethylbutoxy)-3-methylphenyl)pentan-3-yl)phenoxy)hexanamide], at HDAC6, the IC50 was 1.57 µM. In addition, the antiproliferative potency result in the assay with SCC4 cells is on record as “low micromolar potency”.

Source of the values: patent publication EP2794556B1, “BIS-(ARYL/HETEROARYL)-METHYLENE COMPOUNDS, PHARMACEUTICAL COMPOSITIONS CONTAINING SAME AND THEIR USE FOR TREATING CANCER” (Gleason, James L., priority 2011, dated 2013).
